According to patent publication US20120035247A1, “RNA Interference Mediated Inhibition of Signal Transducer and Activator of Transcription 6 (STAT6) Gene Expression Using Short Interfering Nucleic Acid (siNA)” (Merck Sharp & Dohme Corp., priority 2009, published 2012):
[invAb] = inverted abasic unit; m = 2'-O-methyl; r = 2'-OH (RNA); f = 2'-fluoro

What was measured:
STAT6 mRNA [1] = experiment: STAT6 siNA screen in mouse NIH 3T3 cells, STAT6 mRNA by quantitative RT-PCR (Taqman); type: cell-based; conditions: mouse NIH3T3 cells, 10 nM siNA, 24 hrs, normalized to GAPDH and non-targeting control, n = 2
Protocol: NIH 3T3 (mouse; ATCC cat# CRL-1658): Cells were cultured at 37° C. in the presence of 5% CO2 and grown in Dulbecco's modified Eagle's medium (DMEM) with 4 mM L-glutamine adjusted to contain 1.5 g/L sodium bicarbonate and 4.5 g/L glucose and supplemented with fetal bovine serum at a final concentration of 10%, 100 μg/mL of streptomycin, and 100 U/mL penicillin.
(§1) Cells were plated in all wells of a tissue-culture treated, 96-well plate at a final count of 5000 cells/well in […], of the appropriate culture media. The cells were cultured for 24 hours after plating at 37° C. in the presence of 5% CO2.
(§2) After 24 hours, complexes containing siNA and RNAiMax were created as follows: A solution of RNAiMax diluted 33-fold in OPTI-MEM was prepared. In parallel, solutions of the siNAs for testing were prepared to a final concentration of 120 nM in OPTI-MEM. After incubation of RNAiMax/OPTI-MEM solution at room temperature for 5 min, an equal volume of the siNA solution and the RNAiMax solution were added together for each of the siNAs.
(§3) This solution was incubated at room temperature for 20 minutes. After incubation, 20 uL of the solution was added to each of the relevant wells. The final concentration of siNA in each well was 10 nM and the final volume of RNAiMax in each well was 0.3u1.
(§4) The time of incubation with the RNAiMax-siNA complexes was 24 hours and there was no change in media between transfection and harvesting, unless otherwise indicated.
(§5) RNA was extracted from a 96-well plate using the TaqMan® Gene Expression Cells-to-CT™ Kit (Cat#4399002) with a modified protocol. Briefly, a 60 uL (1 plate) or 110 uL (2 plates) of the Lysis Solution with DNase I was dispensed into each well of the Lysis Buffer Plate (twin.tec full skirt plate). The lysis buffer and stop plates were stored at 4° C. until the cells were washed.
(§6) The plate was spun at 1100 rpm for 5 minutes. The culture medium was aspirated and discarded from the wells of the culture plate. The lysis was performed automatically using a BioMek FX instrument and method. After the Biomek method was completed, the lysis plate was incubated for 2 min. at room temperature. The lysis plate can be stored for 2 hours at 4° C., or at −20° C. or −80° C. for two months.
(§7) Each well of the reverse transcription plate required 10 uL of 2× reverse transcriptase Buffer, luL of 20× reverse transcription enzyme and 2 uL of nuclease-free water. The reverse transcription master mix was prepared by mixing 2× reverse transcription buffer, 20× reverse transcription enzyme mix, and nuclease-free water. 13 uL of the reverse transcription master mix was dispensed into each well of the reverse transcription plate (semi-skirted). A separate reverse transcription plate was prepared for each cell plate. The plate was loaded onto a Biomek NX or Biomek FX Dual-96 and the Biomek method was run. The program is programmed to automatically added 7 uL of lysate from the cell lysis procedure described above into each well of the reverse transcription plate. The plate is sealed and spun on a centrifuge (1000 rpm for 30 seconds) to settle the contents to the bottom of the reverse transcription plate. The plate is placed in a thermocycler at 37° C. for 60 min, 95° C. for 5 min, and 4° C. until the plate is removed from the thermocycler. Upon removal, if not used immediately, the plate was frozen at −20° C.
(§8) A series of probes and primers were used to detect the various mRNA transcripts of the genes of 13-Actin (human cell line only), and of STATE and GAPDH in mouse and human cell lines. All Taqman probes and primers for the experiments here-in described were supplied as pre-validated sets by Applied Biosystems, Inc. (see Table 2).
The assays were performed on an ABI 7900 instrument, according to the manufacturer's instructions. A TaqMan Gene Expression Master Mix (provided in the Cells-to-CTT™, Applied Biosystems, Cat #4399002) was used. […]

STAT6 mRNA [2] = experiment: STAT6 siNA screen and dose response in human A549 cells, STAT6 mRNA by quantitative RT-PCR (Taqman); type: cell-based; conditions: human A549 cells, 10 nM siNA, 24 hrs, normalized to GAPDH and non-targeting control, mean ± S.D., n = 3
Protocol: A549 (human; ATCC cat# CCL-185): Cells were cultured at 37° C. in the presence of 5% CO2 and grown in Ham's F12K medium with 2 mM L-glutamine adjusted to contain 1.5 g/L sodium bicarbonate and supplemented with fetal bovine serum at a final concentration of 10%, 100 μg/mL of streptomycin, and 100 U/mL penicillin.
as §1, §2, §3, §4, §5, §6, §7, §8
The assays were performed on an ABI 7900 instrument, according to the manufacturer's instructions. A TaqMan Gene Expression Master Mix (provided in the Cells-to-CTT™, Applied Biosystems, Cat #4399002) was used. The PCR reactions were carried out at 50° C. for 2 min, 95° C. for 20 min followed by 40 cycles at 95° C. for 15 secs and 60° C. for 1 min. […]

Row | Substance | % KD STAT6 (STAT6 mRNA [1]) | % KD STAT6 (STAT6 mRNA [2])
1 | 29989-DC: STAT6 siNA duplex; sense SEQ ID NO: 42, antisense SEQ ID NO: 43; target GAAGGCUUCUCCGCCCAUU, site 3187 (sense GAAGGCUUCUCCGCCCAUUTT; antisense AAUGGGCGGAGAAGCCUUCUU; sense: DNA at AGT, 2'-fluoro at CU, [invAb] at 5' end, 3' end, backbone not given here; antisense: sugars from the 5' end rrrmmmfmmmmmmmfffffmm, backbone not given here) [STAT6 siNA duplex; target GAAGGCUUCUCCGCCCAUU, site 3187] | −18.3 ± 7.1% | 29.1 ± 3.8%
2 | 29991-DC: STAT6 siNA duplex; sense SEQ ID NO: 46, antisense SEQ ID NO: 47; target CAGCCAAAGCCCUAGUGCU, site 846 (sense CAGCCAAAGCCCUAGUGCUTT; antisense AGCACUAGGGCUUUGGCUGUU; sense: DNA at AGT, 2'-fluoro at CU, [invAb] at 5' end, 3' end, backbone not given here; antisense: sugars from the 5' end rrrmffmmmmffffmmffmmm, backbone not given here) [STAT6 siNA duplex; target …UAGUGCU, site 846] | −30 ± 9.2% | −2.1 ± 17.7%
3 | 29992-DC: STAT6 siNA duplex; sense SEQ ID NO: 48, antisense SEQ ID NO: 49; target CUGAGAACCCUCGUCACCA, site 1064 (sense CUGAGAACCCUCGUCACCATT; antisense UGGUGACGAGGGUUCUCAGUU; sense: DNA at AGT, 2'-fluoro at CU, [invAb] at 5' end, 3' end, backbone not given here; antisense: sugars from the 5' end rrrfmmfmmmmmfffffmmmm, backbone not given here) [STAT6 siNA duplex; target CUGAGAACCCUCGUCACCA, site 1064] | −0.5 ± 1% | 51.2 ± 0.4%
4 | 29993-DC: STAT6 siNA duplex; sense SEQ ID NO: 50, antisense SEQ ID NO: 51; target CCCUUGAGAGCAUAUAUCA, site 519 (sense CCCUUGAGAGCAUAUAUCATT; antisense UGAUAUAUGCUCUCAAGGGUU; sense: DNA at AGT, 2'-fluoro at CU, [invAb] at 5' end, 3' end, backbone not given here; antisense: sugars from the 5' end rrrfmfmfmffmfmmmmmmmm, backbone not given here) [STAT6 siNA duplex; target CCCUUGAGAGCAUAUAUCA, site 519] | −23.4 ± 1.6% | 24.4 ± 8.1%
5 | 29994-DC: STAT6 siNA duplex; sense SEQ ID NO: 52, antisense SEQ ID NO: 53; target CUGAUCAUUGGCUUCAUCA, site 1880 (sense CUGAUCAUUGGCUUCAUCATT; antisense UGAUGAAGCCAAUGAUCAGUU; sense: DNA at AGT, 2'-fluoro at CU, [invAb] at 5' end, 3' end, backbone not given here; antisense: sugars from the 5' end rrrfmmmmffmmfmmffmmmm, backbone not given here) [STAT6 siNA duplex; target CUGAUCAUUGGCUUCAUCA, site 1880] | −13.9 ± 4.1% | 1.9 ± 15.7%
6 | 29995-DC: STAT6 siNA duplex; sense SEQ ID NO: 54, antisense SEQ ID NO: 55; target CAGGAUGGCUCUCCACAGA, site 2009 (sense CAGGAUGGCUCUCCACAGATT; antisense UCUGUGGAGAGCCAUCCUGUU; sense: DNA at AGT, 2'-fluoro at CU, [invAb] at 5' end, 3' end, backbone not given here; antisense: sugars from the 5' end rrrmfmmmmmmffrffffmmm, backbone not given here) [STAT6 siNA duplex; target CAGGAUGGCUCUCCACAGA, site 2009] | −6.6 ± 1.3% | 20.4 ± 5.1%
7 | 29996-DC: STAT6 siNA duplex; sense SEQ ID NO: 56, antisense SEQ ID NO: 57; target GCACCAUCUUGCAACACAU, site 495 (sense GCACCAUCUUGCAACACAUTT; antisense AUGUGUUGCAAGAUGGUGCUU; sense: DNA at AGT, 2'-fluoro at CU, [invAb] at 5' end, 3' end, backbone not given here; antisense: sugars from the 5' end rrrfmffmfmmmmfmmfmfmm, backbone not given here) [STAT6 siNA duplex; target GCACCAUCUUGCAACACAU, site 495] | −10.9 ± 0.1% | 49.5 ± 5.5%
8 | 29998-DC: STAT6 siNA duplex; sense SEQ ID NO: 60, antisense SEQ ID NO: 61; target CUUCUUAUGACCUUGGAAU, site 2274 (sense CUUCUUAUGACCUUGGAAUTT; antisense AUUCCAAGGUCAUAAGAAGUU; sense: DNA at AGT, 2'-fluoro at CU, [invAb] at 5' end, 3' end, backbone not given here; antisense: sugars from the 5' end rrrffmmmmffmfmmmmmmmm, backbone not given here) [STAT6 siNA duplex; target CUUCUUAUGACCUUGGAAU, site 2274] | −3.8 ± 9.2% | 32.5 ± 3.5%
9 | 30000-DC: STAT6 siNA duplex; sense SEQ ID NO: 64, antisense SEQ ID NO: 65; target CACAUACAGAGCUCUCUGA, site 3114 (sense CACAUACAGAGCUCUCUGATT; antisense UCAGAGAGCUCUGUAUGUGUU; sense: DNA at AGT, 2'-fluoro at CU, [invAb] at 5' end, 3' end, backbone not given here; antisense: sugars from the 5' end rrrmmmmmffffmfmfmfmmm, backbone not given here) [STAT6 siNA duplex; target CACAUACAGAGCUCUCUGA, site 3114] | −21.9 ± 5.7% | 40.5 ± 12.5%
10 | 30001-DC: STAT6 siNA duplex; sense SEQ ID NO: 66, antisense SEQ ID NO: 67; target GAAAGCCUGGUGGACAUUU, site 956 (sense GAAAGCCUGGUGGACAUUUTT; antisense AAAUGUCCACCAGGCUUUCUU; sense: DNA at AGT, 2'-fluoro at CU, [invAb] at 5' end, 3' end, backbone not given here; antisense: sugars from the 5' end rrrfmfffmffmmmfffffmm, backbone not given here) [STAT6 siNA duplex; target GAAAGCCUGGUGGACAUUU, site 956] | −5.9 ± 6.6% | 48.2 ± 5%
